Target: T1, bovine serum albumine (Bos taurus, UniProt P02769)
T1 construct: purchased Sigma A-8022
Assay: Inhibition of furosine formation (non-enzymatic glycosylation of BSA by glucose, Maillard's reaction), furosine determined by HPLC
Assay type: biochemical
Settings: inhibition rate of furosine formation; 5 mM test compound, 20 mg/ml BSA, 50 mM glucose, 50 mM phosphate buffer pH 7.3, 4 weeks at 37 °C
Procedure: Sample solutions as shown below were aseptically prepared from bovine serum albumine (No. A-8022, Sigma)(hereinafter referred to as BSA), 50 mM phosphate buffer solution (PH 7.3) and the test compound and aminoguanidine.
Normal sample; 20 mg/ml BSA in buffer solution Control sample: 20 mg/ml BSA and 50 mM glucose in buffer solution Test sample; 20 mg/ml BSA, 50 mM glucose and 5 mM test compound in buffer solution The sample solutions were kept for 4 weeks at 37 °C, and the amount of furosine which was formed by non-enzymatic glycosylation was determined by HPLC according to the method of Schleicher et al. [J. Clin. Biochem., 19:81-87 (1981).] Thus, the sample solutions after reaction were dialyzed, and aliquots of 1 ml were lyophylized and then hydrolyzed by the addition of 1 ml of 6 N hydrochloric acid followed by heating at 100 °C for 20 hours. After removal of hydrochloric acid by evaporation, 1 ml of water was added to each sample, and the samples were subjected to filtration using a filter with the pore size of 0.45 »m. The filtrate was used as the sample for HPLC. […] The absorbance peak whose ratio of peak area at […] was 3.9/1 was regarded as the peak corresponding to furosine.
Upon the area of the peak of furosine of each sample, the inhibition rate of furosine formation by the test compound was calculated as follows. […]

T1 sequence (P02769 25-607): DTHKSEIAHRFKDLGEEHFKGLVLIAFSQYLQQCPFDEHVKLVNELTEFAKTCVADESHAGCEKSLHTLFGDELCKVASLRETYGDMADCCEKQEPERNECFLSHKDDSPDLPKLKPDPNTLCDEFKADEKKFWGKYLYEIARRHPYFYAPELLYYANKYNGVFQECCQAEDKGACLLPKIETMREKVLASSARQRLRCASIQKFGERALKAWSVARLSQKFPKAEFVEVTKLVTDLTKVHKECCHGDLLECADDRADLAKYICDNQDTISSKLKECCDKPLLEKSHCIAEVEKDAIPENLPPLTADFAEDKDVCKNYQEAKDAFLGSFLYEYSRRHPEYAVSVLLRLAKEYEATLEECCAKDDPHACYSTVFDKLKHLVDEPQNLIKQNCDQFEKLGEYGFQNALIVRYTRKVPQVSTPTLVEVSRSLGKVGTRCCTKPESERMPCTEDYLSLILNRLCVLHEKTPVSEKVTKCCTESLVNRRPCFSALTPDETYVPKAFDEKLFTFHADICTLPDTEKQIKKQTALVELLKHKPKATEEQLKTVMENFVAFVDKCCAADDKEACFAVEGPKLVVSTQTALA

inhibition at 5000 µM: 7.5%
SMILES: N=C(N)NN [Aminoguanidine]

Source: patent EP0430045B1, “Ascorbic acid tocopheryl phosphate diesters for inhibition of Maillard's reaction” (Senju Pharmaceutical Co., Ltd., priority 1989, dated 1991)
